Measurements as given in paper PMC11726677, “Eradication of Therapy-Resistant Cancer Stem Cells by Novel Telmisartan Derivatives” (Journal of Medicinal Chemistry, 2024).
One block for each compound: values may come before it.

Columns and labels:
K562-R cells [1] = assay: Chemosensitizing: metabolic activity of K562-R cells cotreated with imatinib (modified MTT assay); type: cell-based, human; settings: 72 h; for metabolic activity of K562-R cells, combination with imatinib: compound 10 μM + imatinib 1 μM; for chemosensitizing effect, concentration-dependent analysis: 0.5–8 μM (transporter inhibitors 10 to 0.5 μM)
Method: (§1) The potential reduction in cell viability was determined using the modified MTT assay.
conc. 10 to 0.5 μM) over 72 h (Figure 3D).
(§2) COS-7 (2 × 10^3 cells per well), IGROV-1 SP (2.5 × 10^3 cells per well), A2780 V SP (1.5 × 10^3 cells per well), PC3-DR (4 × 10^3 cells per well), and DU145-DR (3 × 10^3 cells per well) cells were seeded in 96-well plates in triplicates and after 24 h, the compounds were added at the respective concentrations. K562-R and K562 cells (2 × 10^4 cells per well), were treated with the compounds 2 h after seeding. […] A modified MTT colorimetric assay (EZ4U kit, Biomedica) was used to determine the metabolic activity of the tested cells, according to the manufacturer’s instructions. Absorbance was measured and the optical density of the respective FCS-containing medium and of the substrate was subtracted to exclude nonspecific staining. Metabolic activity in the absence of the compounds (CTR, DMSO) was set to 100% as reference.

K562-R cells [2] = assay: Metabolic activity of K562-R cells, compounds alone (modified MTT assay); type: cell-based, human; settings: 72 h; for metabolic activity of K562-R cells, compound alone: 10 μM, without imatinib, vehicle control = 100%; for viability at 10 µM: Homo sapiens, K-562R, read-out: metabolic activity of K562-R cells, compound alone
Method: as §1
First, the compounds (10 μM) were applied alone to evaluate their effects per se.
as §2

K562 cells = assay: Metabolic activity of TKI-sensitive K562 cells (MTT assay); type: cell-based, human; settings: 10 μM, 72 h, alone
Method: Selectivity for therapy-resistant K562-R cells can be assessed by comparing the results with TKI-sensitive K562 cells.
as §2

ABCB1 = assay: Jess Simple Western immunoassay of ABCB1 expression in K562-R cells; type: cell-based, human; settings: 4 μM, 72 h
Method: (§3) Protein extracts were prepared as previously described.[44] Protein expression was determined using the capillary-based Jess Simple Western detection system (ProteinSimple, BioTechne) according to the manufacturer’s instructions at default settings. […] Horseradish peroxidase (HRP)-conjugated secondary antirabbit antibody, which was included in the Jess Detection Module kit, was used. Data analysis was conducted using Compass for Simple Western 4.0 software (ProteinSimple, BioTechne).

STAT5 = assay: Jess Simple Western immunoassay of STAT5/pSTAT5 in K562-R cells; type: cell-based, human
Method: In the next step, the effects of the compounds (4 μM) on STAT5 in K562-R cells were examined.
as §3

A2780 V SP cells = assay: Chemosensitizing to paclitaxel: metabolic activity of A2780 V SP cells (MTT); type: cell-based, human
Method: (§4) The chemosensitizing efficacy was investigated in the ovarian and prostate cancer cell lines using the above-described metabolic activity assay. Paclitaxel (PTX) served as a reference (CTR) in A2780 V SP and IGROV-1 SP cells and docetaxel (DTX) in PC3-DR and D145-DR cells.
as §2

IGROV-1 SP cells = assay: Chemosensitizing to paclitaxel: metabolic activity of IGROV-1 SP cells (MTT); type: cell-based, human; settings: PTX 10 nM, 72 h, compared to solvent control
Method: as §4, §2

[3] = biological target: ABCB1 transporter in K562-R cells (Homo sapiens, UniProt P08183); assay: Side population (SP) analysis, DCV staining, flow cytometry; settings: 10 μM
Chain of ABCB1 transporter in K562-R cells (P08183 whole entry): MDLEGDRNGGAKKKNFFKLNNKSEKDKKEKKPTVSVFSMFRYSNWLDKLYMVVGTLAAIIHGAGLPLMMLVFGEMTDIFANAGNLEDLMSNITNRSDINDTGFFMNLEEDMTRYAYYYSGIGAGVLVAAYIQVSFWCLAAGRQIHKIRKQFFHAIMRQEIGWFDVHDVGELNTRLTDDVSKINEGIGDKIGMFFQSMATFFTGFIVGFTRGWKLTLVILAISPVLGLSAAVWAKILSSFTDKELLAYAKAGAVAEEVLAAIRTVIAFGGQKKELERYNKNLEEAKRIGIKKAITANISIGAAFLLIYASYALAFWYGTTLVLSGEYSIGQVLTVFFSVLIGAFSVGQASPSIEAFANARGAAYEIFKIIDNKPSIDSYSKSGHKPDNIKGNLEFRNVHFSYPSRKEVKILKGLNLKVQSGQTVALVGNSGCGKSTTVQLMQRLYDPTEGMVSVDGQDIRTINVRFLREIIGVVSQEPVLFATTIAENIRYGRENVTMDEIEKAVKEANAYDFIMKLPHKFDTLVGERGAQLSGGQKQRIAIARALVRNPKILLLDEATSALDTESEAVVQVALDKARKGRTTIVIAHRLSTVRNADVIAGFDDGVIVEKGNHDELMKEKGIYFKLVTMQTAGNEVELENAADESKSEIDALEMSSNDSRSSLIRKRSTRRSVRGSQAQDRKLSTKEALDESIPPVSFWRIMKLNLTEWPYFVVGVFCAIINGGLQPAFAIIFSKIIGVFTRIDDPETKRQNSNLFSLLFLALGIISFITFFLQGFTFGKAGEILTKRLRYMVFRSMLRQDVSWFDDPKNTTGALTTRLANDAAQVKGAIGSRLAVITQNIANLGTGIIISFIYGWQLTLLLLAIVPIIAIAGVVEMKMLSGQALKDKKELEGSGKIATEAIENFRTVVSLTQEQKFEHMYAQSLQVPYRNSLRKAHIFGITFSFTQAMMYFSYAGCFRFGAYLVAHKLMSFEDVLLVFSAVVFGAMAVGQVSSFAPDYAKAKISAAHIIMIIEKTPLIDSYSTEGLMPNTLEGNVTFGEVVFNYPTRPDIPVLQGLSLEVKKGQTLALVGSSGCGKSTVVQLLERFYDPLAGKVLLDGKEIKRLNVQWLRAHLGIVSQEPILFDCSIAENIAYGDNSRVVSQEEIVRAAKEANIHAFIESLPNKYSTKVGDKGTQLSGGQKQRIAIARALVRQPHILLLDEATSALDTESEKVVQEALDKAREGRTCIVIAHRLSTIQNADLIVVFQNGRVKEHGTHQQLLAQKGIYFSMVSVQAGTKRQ
Method: SP analyses were performed as previously described[45] on a LSRFortessa flow cytometer (BD Biosciences, Vienna, Austria). Briefly, 1 × 10^6 cells/mL were stained with 10 μM Vybrant DyeCycleTM Violet (DCV; Molecular Probes, Eugene, OR) in the presence or absence of the investigated compounds for 90 min at 37 °C. […] Subsequently, the cells were washed and immediately analyzed using flow cytometry. The FlowJo 9.6 software was used for data analyses (Tree Star Software, Ashland, CA).

SMILES: CCCc1nc2ccccc2n1Cc1cccc(C(N)=O)c1 [2c, 3-((2-Propyl-1H-benzo[d]imidazole-1-yl)methyl)benzamide]
metabolic activity of K562-R cells, combination with imatinib (K562-R cells [1]): could not be increased

SMILES: COc1cc2c(cc1OC)CN(CCc1ccc(NC(=O)c3cccc4c(=O)c5cccc(OC)c5[nH]c34)cc1)CC2 [elacridar, reference compound]
metabolic activity of K562-R cells, compound alone (K562-R cells [2]): did not affect the viability
chemosensitizing effect, concentration-dependent analysis (K562-R cells [1]; K562-R, + imatinib 1 μM): comparable to telmi-ester (7b)
metabolic activity of K562 cells (K562 cells): did not affect the viability
ABCB1 protein expression (ABCB1): none of the compounds abrogated the ABCB1 protein expression
phosphorylation of STAT5 (STAT5; 4 μM + imatinib 1 μM, 6 h): hardly triggered any change in the expression of pSTAT5
phosphorylation of STAT5 (STAT5; 4 μM alone, 72 h): did not influence the phosphorylation of STAT5

SMILES: CC(=O)O[C@H]1C(=O)[C@@]2(C)[C@H]([C@H](OC(=O)c3ccccc3)[C@]3(O)C[C@H](OC(=O)[C@H](O)[C@@H](NC(=O)c4ccccc4)c4ccccc4)C(C)=C1C3(C)C)[C@]1(OC(C)=O)CO[C@@H]1C[C@@H]2O [PTX, paclitaxel]
IC50 (A2780 V SP cells; Homo sapiens, PTX 0–300 nM, read-out: IC50 (PTX), PTX alone): 168 nM
metabolic activity of treated cells, PTX alone (A2780 V SP cells; PTX 10 nM, 72 h, compared to solvent control): > 80%
metabolic activity of treated cells, PTX alone (IGROV-1 SP cells): > 80%

SMILES: CCCc1nc2ccccc2n1Cc1ccc(C(N)=O)cc1 [3c, 4-((2-Propyl-1H-benzo[d]imidazole-1-yl)methyl)benzamide]
metabolic activity of K562-R cells, combination with imatinib (K562-R cells [1]): could not be increased

SMILES: C/C=C/C[C@@H](C)C(=O)[C@H]1C(=O)N[C@@H](C(C)C)C(=O)N(C)CC(=O)N(C)[C@@H](CC(C)C)C(=O)N[C@@H](C(C)C)C(=O)N(C)[C@@H](CC(C)C)C(=O)N[C@@H](C)C(=O)N[C@H](C)C(=O)N(C)[C@@H](CC(C)C)C(=O)N(C)[C@@H](CC(C)C)C(=O)N(C)[C@@H](C(C)C)C(=O)N1C [valspodar, reference compound]
metabolic activity of K562-R cells, compound alone (K562-R cells [2]): did not affect the viability
chemosensitizing effect, concentration-dependent analysis (K562-R cells [1]; K562-R, + imatinib 1 μM): sensitized the cells similarly to the derivatives 4b, 5c, 6b, 6c
metabolic activity of K562 cells (K562 cells): did not affect the viability

SMILES: CCCc1nc2ccccc2n1Cc1ccccc1C(N)=O [1c, 2-((2-Propyl-1H-benzo[d]imidazole-1-yl)methyl)benzamide]
viability at 10 µM (K562-R cells [2]): 75 to 80%
metabolic activity of K562-R cells, combination with imatinib (K562-R cells [1]): could not be increased

effect on SP phenotype / ABCB1 activity [3]: efficiently reduced the ABCB1 activity
relation of SP and NSP [3]: about 50%
SMILES: CCCc1nc2ccccc2n1Cc1ccc(-c2ccc(C(=O)OC)cc2)cc1 [6b, Methyl 4′-((2-propyl-1H-benzo[d]imidazole-1-yl)methyl)-[1,1′-biphenyl]-4-carboxylate]
viability at 10 µM (K562-R cells [2]): 75 to 80%
EC50 (K562-R cells [1]; K562-R, + imatinib 1 μM, read-out: SC50 (drug concentration eliciting 50% of the maximum sensitizing effect)): 1180 nM
metabolic activity of K562-R cells, combination with imatinib (K562-R cells [1]): 8–24%
metabolic activity of K562 cells (K562 cells): ≥ 65%
ABCB1 protein expression (ABCB1): none of the compounds abrogated the ABCB1 protein expression
phosphorylation of STAT5 (STAT5; 4 μM + imatinib 1 μM, 6 h): marked repression of the STAT5 phosphorylation
